Assay [1] has as its target c-kit mutant D816V (Homo sapiens (Human), UniProt P10721, D816V/DEL694-753). The assay can be described thus: c-Kit mutant D816V biochemical assay (AlphaScreen). To be noted: c-kit D816V biochemical inhibitory activity. The method, boiled down:
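His-tagged c-Kit D816V kinase domain (551-934, Δ694-753, E. coli) phosphorylating 30 nM biotin-(E4Y)10 at 10 μM ATP in HEPES pH 7.2 with Mg/Mn, 5% DMSO, 30 min at room temperature. PY20-acceptor/streptavidin-donor AlphaScreen detection after EDTA stop. IC50 from 8-point 1:3 titration.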
(Alpha assays give light when donor and acceptor beads are brought close together.)

The test system of assay [2] is BaF3-FL KIT D816V or BaF3-FL KIT V560G/D816V cell line. The assay can be described thus: Cell-based assays of c-Kit mutant kinase activity (cell growth, ATPlite). To be noted: at least one of the c-kit cell assays of Example 26. Put shortly:
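BaF3 cells dependent on full-length human KIT (D816V or V560G/D816V) seeded at 1×10^4 cells/well in RPMI with 10% FBS. Eight-point 1:3 dilutions from 10 μM top final (0.2% DMSO), 3 days at 37° C., 5% CO2. ATPlite luminescence gave IC50.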

The structures appear in SMILES notation.

c-kit mutant D816V, sequence (P10721 other isoform, or with tags, fused parts or gaps D816V/del 694-753): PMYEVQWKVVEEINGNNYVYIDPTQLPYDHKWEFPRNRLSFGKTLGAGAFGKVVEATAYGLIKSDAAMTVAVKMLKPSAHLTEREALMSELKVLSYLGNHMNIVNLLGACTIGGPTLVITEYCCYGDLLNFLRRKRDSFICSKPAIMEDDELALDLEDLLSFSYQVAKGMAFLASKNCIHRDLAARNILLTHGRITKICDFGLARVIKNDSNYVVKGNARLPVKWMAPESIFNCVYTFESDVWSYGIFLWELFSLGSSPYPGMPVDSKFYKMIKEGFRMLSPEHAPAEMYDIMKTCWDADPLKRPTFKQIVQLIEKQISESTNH

For orientation: IC50 means the concentration that gives 50% inhibition. A lower IC50 goes with greater potency in that assay. As to `O=C(Nc1cnc2[nH]c(-c3ccccc3)cc2c1)c1cccc2n[nH]cc12` [P-2289, N-(2-phenyl-1H-pyrrolo[2,3-b]pyridin-5-yl)-2H-indazole-4-carboxamide], the 50% inhibitory concentration (IC50) was 1 to 10 µM in assay [1] and below 10 µM in assay [2].
As for `Cc1cccnc1C(=O)Nc1cnc2[nH]c(-c3ccccc3)cc2c1` [P-2016, 3-methyl-N-(2-phenyl-1H-pyrrolo[2,3-b]pyridin-5-yl)pyridine-2-carboxamide], the figures for the IC50 in assay [1] and in assay [2] were 1 to 10 µM and below 10 µM, respectively.
On to `Cc1n[nH]c(C(=O)Nc2cnc3[nH]c(-c4ccc(F)nc4F)cc3c2)c1C` [P-2280, N-[2-(2,6-difluoro-3-pyridyl)-1H-pyrrolo[2,3-b]pyridin-5-yl]-3,4-dimethyl-1H-pyrazole-5-carboxamide], for which the figures for the IC50 in assay [1] and in assay [2] were 0.0001 to 1 µM and below 10 µM, respectively.
In the same order, the values of `Cc1cc(-c2cc3cc(NC(=O)c4[nH]nc(C)c4C)cnc3[nH]2)cnc1C` [P-2282, N-[2-(5,6-dimethyl-3-pyridyl)-1H-pyrrolo[2,3-b]pyridin-5-yl]-3,4-dimethyl-1H-pyrazole-5-carboxamide] are 0.0001 to 1 µM and below 10 µM.
Regarding `Cc1n[nH]c(C(=O)Nc2ccc(Nc3ccccc3)nc2)c1C` [P-2045, N-(6-anilino-3-pyridyl)-3,4-dimethyl-1H-pyrazole-5-carboxamide], the IC50 in assay [1] is 0.0001 to 1 µM; in assay [2] it was below 10 µM.
Take `Cc1n[nH]c(C(=O)Nc2cnc3[nH]c(-c4c(C)n[nH]c4C)cc3c2)c1C` [P-2167, N-[2-(3,5-dimethyl-1H-pyrazol-4-yl)-1H-pyrrolo[2,3-b]pyridin-5-yl]-3,4-dimethyl-1H-pyrazole-5-carboxamide]: the results for the IC50 in assay [1] and in assay [2] were 0.0001 to 1 µM and below 10 µM, respectively.
With `Cc1n[nH]c(C(=O)Nc2cnc3[nH]c(-c4cccc(CC(=O)O)c4)cc3c2)c1C` [P-2293, 2-[3-[5-[(3,4-dimethyl-1H-pyrazole-5-carbonyl)amino]-1H-pyrrolo[2,3-b]pyridin-2-yl]phenyl]acetic acid], the 50% inhibitory concentration (IC50) in assay [1] was 0.0001 to 1 µM; in assay [2], below 10 µM.
For `Cc1n[nH]c(C(=O)Nc2cnc3[nH]c(-c4ccnc(N5CCN(C(=O)CC#N)CC5)c4)cc3c2)c1C` [P-2189, N-[2-[2-[4-(2-cyanoacetyl)piperazin-1-yl]-4-pyridyl]-1H-pyrrolo[2,3-b]pyridin-5-yl]-3,4-dimethyl-1H-pyrazole-5-carboxamide], the IC50 was 0.0001 to 1 µM in assay [1] and below 10 µM in assay [2].
Regarding `Cc1n[nH]c(C(=O)Nc2cnc(Nc3ccccc3)nc2)c1C` [P-2044, N-(2-anilinopyrimidin-5-yl)-3,4-dimethyl-1H-pyrazole-5-carboxamide], the values for the IC50 in assay [1] and in assay [2] were 0.0001 to 1 µM and below 10 µM, respectively.
As for `Cc1cncc(-c2cc3cc(NC(=O)c4[nH]nc(C)c4C)cnc3[nH]2)c1` [P-2184, 3,4-dimethyl-N-[2-(5-methyl-3-pyridyl)-1H-pyrrolo[2,3-b]pyridin-5-yl]-1H-pyrazole-5-carboxamide], the IC50 in assay [1] was 0.0001 to 1 µM; in assay [2] it was below 10 µM.
Consider `CCc1cc(-c2cc3cc(NC(=O)c4[nH]nc(C)c4C)cnc3[nH]2)ccn1` [P-2177, N-[2-(2-ethyl-4-pyridyl)-1H-pyrrolo[2,3-b]pyridin-5-yl]-3,4-dimethyl-1H-pyrazole-5-carboxamide], for which the IC50 in assay [1] is 0.0001 to 1 µM; in assay [2], below 10 µM.
In the case of `Cc1n[nH]c(C(=O)Nc2cnc3[nH]c(-c4ccnc5c4OCCO5)cc3c2)c1C` [P-2179, N-[2-(2,3-dihydro-[1,4]dioxino[2,3-b]pyridin-8-yl)-1H-pyrrolo[2,3-b]pyridin-5-yl]-3,4-dimethyl-H-pyrazole-5-carboxamide], the IC50 in assay [1] is 0.0001 to 1 µM; in assay [2] it was below 10 µM.
In the case of `CCCS(=O)(=O)Nc1cccc(Nc2ncc(NC(=O)c3[nH]nc(C)c3C)cn2)c1` [P-2052, 3,4-dimethyl-N-[2-[3-(propylsulfonylamino)anilino]pyrimidin-5-yl]-1H-pyrazole-5-carboxamide], the values for the IC50 in assay [1] and in assay [2] were 0.0001 to 1 µM and below 10 µM, respectively.
As for `Cc1n[nH]c(C(=O)Nc2cnc3[nH]c(-c4ccccc4OC(F)(F)F)cc3c2)c1C` [P-2182, 3,4-dimethyl-N-[2-[2-(trifluoromethoxy)phenyl]-1H-pyrrolo[2,3-b]pyridin-5-yl]-1H-pyrazole-5-carboxamide], the IC50 was 0.0001 to 1 µM in assay [1] and below 10 µM in assay [2].
Take `Cc1noc(C)c1C(=O)Nc1cnc2[nH]c(-c3ccccc3)cc2c1` [P-2013, 3,5-dimethyl-N-(2-phenyl-1H-pyrrolo[2,3-b]pyridin-5-yl)isoxazole-4-carboxamide]: the IC50 in assay [1] was 10 to 200 µM; in assay [2], below 10 µM.
On to `Cc1n[nH]c(C(=O)Nc2cnc3[nH]c(-c4cncc(C#N)c4)cc3c2)c1C` [P-2270, N-[2-(5-cyano-3-pyridyl)-1H-pyrrolo[2,3-b]pyridin-5-yl]-3,4-dimethyl-1H-pyrazole-5-carboxamide], for which the IC50 in assay [1] was 0.0001 to 1 µM; in assay [2], below 10 µM.
Regarding `Cc1n[nH]c(C(=O)Nc2cnc3[nH]ccc3c2)c1C` [P-2032, 3,4-dimethyl-N-(1H-pyrrolo[2,3-b]pyridin-5-yl)-1H-pyrazole-5-carboxamide], the IC50 was 1 to 10 µM in assay [1] and below 10 µM in assay [2].
For the molecule `Cc1nn(C2CNC2)cc1-c1cc2cc(NC(=O)c3[nH]nc(C)c3C)cnc2[nH]1` [P-2286, N-[2-[1-(azetidin-3-yl)-3-methyl-pyrazol-4-yl]-1H-pyrrolo[2,3-b]pyridin-5-yl]-3,4-dimethyl-1H-pyrazole-5-carboxamide], the IC50 in assay [1] is 0.0001 to 1 µM; in assay [2] it was below 10 µM.
On to `Cc1n[nH]c(C(=O)Nc2cnc3[nH]c(-c4cnc(N5CCN(C)CC5)nc4)cc3c2)c1C` [P-2160, 3,4-dimethyl-N-[2-[2-(4-methylpiperazin-1-yl)pyrimidin-5-yl]-1H-pyrrolo[2,3-b]pyridin-5-yl]-1H-pyrazole-5-carboxamide], for which the IC50 in assay [1] is 0.0001 to 1 µM; in assay [2], below 10 µM.
Take `Cc1cc(C(=O)Nc2cnc3[nH]c(-c4ccc(F)cc4)cc3c2)[nH]n1` [P-2019, N-[2-(4-fluorophenyl)-1H-pyrrolo[2,3-b]pyridin-5-yl]-3-methyl-1H-pyrazole-5-carboxamide]: the IC50 in assay [1] was 0.0001 to 1 µM; in assay [2], below 10 µM.
Regarding `CCn1nccc1S(=O)(=O)Nc1cnc2[nH]c(-c3ccc(F)cc3)cc2c1` [P-2030, 2-ethyl-N-[2-(4-fluorophenyl)-1H-pyrrolo[2,3-b]pyridin-5-yl]pyrazole-3-sulfonamide], the results for the IC50 in assay [1] and in assay [2] were 10 to 200 µM and below 10 µM, respectively.
Turning to `Cc1ccc(-c2cc3cc(NC(=O)c4[nH]nc(C)c4C)cnc3[nH]2)c(C)c1` [P-2181, N-[2-(2,4-dimethylphenyl)-1H-pyrrolo[2,3-b]pyridin-5-yl]-3,4-dimethyl-1H-pyrazole-5-carboxamide], the IC50 in assay [1] is 0.0001 to 1 µM; in assay [2], below 10 µM.
In the same order, the values of `Cc1n[nH]c(C(=O)Nc2cnc3[nH]c(-c4ccccc4C(F)(F)F)cc3c2)c1C` [P-2180, 3,4-dimethyl-N-[2-[2-(trifluoromethyl)phenyl]-1H-pyrrolo[2,3-b]pyridin-5-yl]-1H-pyrazole-5-carboxamide] are 0.0001 to 1 µM and below 10 µM.
In the same order, the values of `CC(=O)Nc1cccc(C(=O)Nc2cnc3[nH]c(-c4ccc(F)cc4)cc3c2)c1` [P-2026, 3-acetamido-N-[2-(4-fluorophenyl)-1H-pyrrolo[2,3-b]pyridin-5-yl]benzamide] are 10 to 200 µM and below 10 µM.
For `O=C(Nc1cnc2[nH]c(-c3ccc(F)cc3)cc2c1)c1n[nH]c2c1CCCC2` [P-2047, N-[2-(4-fluorophenyl)-1H-pyrrolo[2,3-b]pyridin-5-yl]-4,5,6,7-tetrahydro-1H-indazole-3-carboxamide], the IC50 was 0.0001 to 1 µM in assay [1] and below 10 µM in assay [2].
Turning to `Cc1n[nH]c(C(=O)Nc2cnc3[nH]c(-c4cccnc4C(F)(F)F)cc3c2)c1C` [P-2176, 3,4-dimethyl-N-[2-[2-(trifluoromethyl)-3-pyridyl]-1H-pyrrolo[2,3-b]pyridin-5-yl]-1H-pyrazole-5-carboxamide], the IC50 in assay [1] was 0.0001 to 1 µM; in assay [2], below 10 µM.
Regarding `COc1ccc(-c2cc3cc(NC(=O)c4[nH]nc(C)c4C)cnc3[nH]2)c(C)c1C` [P-2284, N-[2-(4-methoxy-2,3-dimethyl-phenyl)-1H-pyrrolo[2,3-b]pyridin-5-yl]-3,4-dimethyl-1H-pyrazole-5-carboxamide], the IC50 was 0.0001 to 1 µM in assay [1] and below 10 µM in assay [2].
The like results for `O=C(Nc1cnc2[nH]c(-c3ccccc3)cc2c1)c1cn[nH]n1` [P-2015, N-(2-phenyl-1H-pyrrolo[2,3-b]pyridin-5-yl)-2H-triazole-4-carboxamide] were, in that order, 1 to 10 µM and below 10 µM.
On to `CNC(=O)c1cccc(Nc2ncc(NC(=O)c3[nH]nc(C)c3C)cn2)c1` [P-2054, 3,4-dimethyl-N-[2-[3-(methylcarbamoyl)anilino]pyrimidin-5-yl]-1H-pyrazole-5-carboxamide], for which the IC50 in assay [1] was 0.0001 to 1 µM; in assay [2], below 10 µM.

(Values after US10301280B2 (Plexxikon Inc., priority 2012, dated 2019).)
